Here are results for three molecules from US20100068301A1, “COMPOSITIONS AND TREATMENTS COMPRISING 5-LIPOXYGENASE-ACTIVATING PROTEIN INHIBITORS AND NITRIC OXIDE MODULATORS” (priority 2006, published 2010).

Where two headings read alike, the source gives them in different places.

In data set [1] the test system is naproxen induced gastric lesions. Put plainly: Rat gastric lesion procedure (naproxen-induced). Particulars: co-dosed with naproxen 40 mg/kg. Format: in vivo. On the procedure: Gastric lesions in rat can be induced by ingestion of a non-steroidal anti-inflammatory drug (NSAID) such as naproxen. This effect is apparent with 4 to 6 hours of administration. The therapeutic effect of two different agents on preventing NSAID-induced gastric lesions first as a mono-therapy and then as a combination therapy using a fractional dose approach to test for additivity. The two agents tested include 1) 3-[3-tert-Butylsulfanyl-1-[4-(6-ethoxy-pyridin-3-yl)-benzyl]-5-(pyridin-2-ylmethoxy)-1H-indol-2-yl]-2,2-dimethyl-propionic acid (prepared according to the procedures described in US patent publication no. 2007/0105866; see Compound 2-94), a 5-lipoxygenase activating protein (FLAP) inhibitor and 2) isosorbide mononitrate (a nitric oxide donor).
Procedures: Gastric lesions were induced in 24-hour fasted male Sprague-Dawley rats (weighing 200-300 grams) by administering a single oral dose of naproxen (40 mg/kg), in the mono-therapy phase of the study Compound 2-94 was prepared at 1, 10 and 30 mg/kg and was co-dosed with naproxen. Separately, isosorbide mononitrate was prepared at 3, 10, 30 and 100 mg/kg and was co-dosed with naproxen. The ED50 (defined as the dose to produce the half maximal effect) from this phase of the experiment was used to calculate doses for the combination therapy phase of the study in which Compound 2-94 and isosorbide mononitrate were formulated together and co-dosed with Naproxen. Fractional doses tested include; 2, 1, ½ and ¼ of the ED50 values. In all conditions, four hours alter dosing, rats were anesthetized with inhaled isoflurane and the stomachs removed and cut along the lesser curvature and rinsed thoroughly of any contents using tap water. Each stomach was then pinned down flat with the mucosal layer side up and a digit image captured at an exposure of 10×. These images were then used to determine the total lesion area in mm^2. A Lesion Index (LI) was calculated for each individual stomach by the formula:
LI=[lesion area (mm^2)/total stomach area (mm^2)]×100
Individual drug effects were then determined by calculating the percent inhibition of LI for each dose group relative to the naproxen-alone group using the formula:
% inhibition=100−[LItreatment/LIcontrol(naproxen)×100]
(ED50 of Compound 2-94 with isosorbide mononitrate)/(ED50 ft for Compound 2-94 given alone)+(ED50 of isosorbide mononitrate with Compound 2-94)/(ED50 for isosorbide given alone).
The fractional value indicates what proportion of the single ED50 value was accounted for by the corresponding ED50 value of the combination.

The conditions of data set [2]: intravenous, cited from earlier work.
The mark [3] stands for this setting: Compound 2-94 and isosorbide mononitrate formulated together, read-out: fraction dose ED50 (dose of the component in the combination).
Where [4] appears, read: oral, 4 h after dosing, estimated, read-out: ED50, inhibition of naproxen induced gastric lesions (mono-therapy).

Usually ED50 stands for the dose at which the effect has come halfway, by size or by number of responders. For the molecule `CCOc1ccc(-c2ccc(Cn3c(CC(C)(C)C(=O)O)c(SC(C)(C)C)c4cc(OCc5ccccn5)ccc43)cc2)cn1` [Compound 2-94, 3-[3-tert-Butylsulfanyl-1-[4-(6-ethoxy-pyridin-3-yl)-benzyl]-5-(pyridin-2-ylmethoxy)-1H-indol-2-yl]-2,2-dimethyl-propionic acid], the ED50 in data set [1] (setting [3]) was 2.5 mg/kg; in data set [1] (setting [4]), 5 mg/kg.

With nitroprusside, in data set [2] (15 patients), the “decrease of pulmonary vascular resistance (PVR), mean” value was 32%. In addition, in data set [2] (15 patients, decreased from 29.6), the “mean PAP after treatment” value is reported as 24.2 mm Hg. For the same molecule, the “mean systemic arterial pressure after treatment” value in data set [2] (15 patients, reduced from 89.6, unacceptably low level) is 70 mm Hg. The “effect on pulmonary gas exchange” value in data set [2] (by increasing QVA/QT) was “markedly impairs pulmonary gas exchange”.

For the molecule `O=[N+]([O-])O[C@@H]1CO[C@H]2[C@@H]1OC[C@@H]2O` [isosorbide mononitrate], the ED50 was 7.5 mg/kg in data set [1] (setting [3]) and 15 mg/kg in data set [1] (setting [4]).
